Laboratory results published in the supplement of paper PMC10307832.

These cell lines were tested with COC1=C(C=C(C=C1)C2=CC3=NC=CN3C(=N2)NC4=C(C=CC=N4)C(=O)N)OC [BAY61-3606] + CC(=O)Nc1cccc(-n2c(=O)n(C3CC3)c(=O)c3c(Nc4ccc(I)cc4F)n(C)c(=O)c(C)c32)c1 [Trametinib] (partner 0.02 µM) (assay: relative viability (nuclei count vs DMSO), 5 days (fraction); higher = more cells survive). Details: first compound 0.02 µM.
Method in brief: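 Five library-drug doses in √10 steps were combined with a fixed anchor-drug dose, or a single drug was given alone, by pin tool to lung cancer cell lines in 1536-well plates the day after seeding. Nuclei were stained and counted after 5 days. Relative viability is the nuclei count in treated wells over that in vehicle wells, taken as the median of duplicate plates.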
With RERF-LC-KJ the relative viability was 0.868. In the case of NCI-H1651, the relative viability is reported as 0.929. NCI-H1734 was tested, and the relative viability was 0.708. NCI-H2009 showed a relative viability of 0.318. In the case of NCI-H596, the relative viability is reported as 0.879. SK-LU-1 was tested, and the relative viability was 0.562. In the case of SW 1573, the relative viability is reported as 0.566. LCLC-97TM1 was tested, and the relative viability was 0.207. NCI-H661 showed a relative viability of 0.638. Work on NCI-H2228 yielded a relative viability of 0.523. EMC-BAC-2 showed a relative viability of 0.938. With NCI-H2087 the relative viability was 0.228. HCC-44 was tested, and the relative viability was 1.04. Cell Line NCI-H727 has a relative viability of 0.392. LK-2 showed a relative viability of 0.727. NCI-H2126 was tested, and the relative viability was 0.622. In the case of NCI-H1648, the relative viability is reported as 0.47. NCI-H1793 gave a relative viability of 0.445. For H3255, the relative viability was 0.688. COR-L23 was tested, and the relative viability was 0.725. Cell Line COR-L 105 has a relative viability of 0.474. In the case of LC-2-ad, the relative viability is reported as 0.911. With LU99A the relative viability was 0.485. In the case of NCI-H358, the relative viability is reported as 0.137. NCI-H522 showed a relative viability of 0.607. SW 900 gave a relative viability of 0.877. In the case of NCI-H1395, the relative viability is reported as 1.06. CAL-12T was tested, and the relative viability was 0.359. For NCI-H1944, the relative viability was 0.469. Cell Line NCI-H2170 has a relative viability of 0.859. With SK-MES-1 the relative viability was 0.619.

Same assay, conditions: first compound 0.06325 µM
For NCI-H2342, the relative viability was 0.912. RERF-LC-KJ was tested, and the relative viability was 0.846. NCI-H1651 showed a relative viability of 0.809. NCI-H1734 gave a relative viability of 0.667. With NCI-H2009 the relative viability was 0.229. For NCI-H596, the relative viability was 0.793. Cell Line SK-LU-1 has a relative viability of 0.512. Cell Line SW 1573 has a relative viability of 0.668. With LCLC-97TM1 the relative viability was 0.195. NCI-H661 gave a relative viability of 0.585. Cell Line NCI-H2228 has a relative viability of 0.439. EMC-BAC-2 showed a relative viability of 0.883. NCI-H2087 was tested, and the relative viability was 0.196. HCC-44 showed a relative viability of 1.09. In the case of NCI-H727, the relative viability is reported as 0.382. Work on LK-2 yielded a relative viability of 0.806. Work on NCI-H2126 yielded a relative viability of 0.539. Work on NCI-H1648 yielded a relative viability of 0.466. Work on NCI-H1793 yielded a relative viability of 0.414. Cell Line H3255 has a relative viability of 0.538. With COR-L23 the relative viability was 0.668. COR-L 105 gave a relative viability of 0.414. Work on LC-2-ad yielded a relative viability of 0.961. For LU99A, the relative viability was 0.57. NCI-H358 gave a relative viability of 0.158. In the case of NCI-H522, the relative viability is reported as 0.723. Cell Line NCI-H1395 has a relative viability of 1.07. With CAL-12T the relative viability was 0.372. Work on NCI-H1944 yielded a relative viability of 0.392. NCI-H2170 showed a relative viability of 0.879. SK-MES-1 was tested, and the relative viability was 0.541.

Same assay, conditions: first compound 0.2 µM
NCI-H2342 showed a relative viability of 0.855. For RERF-LC-KJ, the relative viability was 0.901. With NCI-H1651 the relative viability was 0.833. NCI-H1734 gave a relative viability of 0.636. NCI-H2009 was tested, and the relative viability was 0.378. NCI-H596 gave a relative viability of 0.701. Work on SK-LU-1 yielded a relative viability of 0.482. SW 1573 showed a relative viability of 0.533. With LCLC-97TM1 the relative viability was 0.203. Work on NCI-H661 yielded a relative viability of 0.551. NCI-H2228 was tested, and the relative viability was 0.476. Work on EMC-BAC-2 yielded a relative viability of 0.944. Cell Line NCI-H2087 has a relative viability of 0.202. For HCC-44, the relative viability was 1. In the case of NCI-H727, the relative viability is reported as 0.423. In the case of LK-2, the relative viability is reported as 0.897.
